Results: PubChem BioAssay AID1645864 (Buhrlage Lab, Dana-Farber Cancer Institute and Novartis …, 2021)
Calls of active or inactive are those of the source.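 How the source made its calls: active means maximal inhibition of USP17 at or above 30% in the confirmation dose-response, a value not among the printed readouts; inactive means the rest.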

Biological target: Ubiquitin carboxyl-terminal hydrolase 17-like protein 5 (Homo sapiens) (UniProt A8MUK1)
Assay: ubiquitin-specific protease 17 DUB inhibitors, concentration-effect assay, cell-free, verification of initial screening actives (AID 1645864)
Details: purified USP17, ubiquitin-rhodamine cleavage fluorescence, 3 h

Chain of Ubiquitin carboxyl-terminal hydrolase 17-like protein 5 (Homo sapiens) (A8MUK1 whole entry, looked up): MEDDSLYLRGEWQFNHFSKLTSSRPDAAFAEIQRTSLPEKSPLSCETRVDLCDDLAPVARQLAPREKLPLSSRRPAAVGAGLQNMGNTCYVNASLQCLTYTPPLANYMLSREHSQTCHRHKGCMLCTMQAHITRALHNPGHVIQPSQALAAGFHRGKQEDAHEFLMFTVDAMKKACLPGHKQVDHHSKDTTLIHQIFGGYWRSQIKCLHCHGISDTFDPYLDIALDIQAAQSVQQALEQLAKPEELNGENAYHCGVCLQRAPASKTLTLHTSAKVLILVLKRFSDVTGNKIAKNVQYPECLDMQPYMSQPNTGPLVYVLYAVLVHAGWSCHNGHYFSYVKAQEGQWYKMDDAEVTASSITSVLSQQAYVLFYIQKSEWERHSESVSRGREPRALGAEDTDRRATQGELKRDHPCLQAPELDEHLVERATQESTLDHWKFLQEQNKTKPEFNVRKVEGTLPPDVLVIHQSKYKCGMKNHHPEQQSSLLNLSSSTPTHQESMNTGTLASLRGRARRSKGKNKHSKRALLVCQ

SMILES | IC50
O=C(Cn1cnc2c(cnn2-c2ccc(Cl)cc2)c1=O)NCc1ccccc1Cl | 3.43 µM
COc1ccc2nc(-c3ccc(NC(=O)c4cccc(OC)c4OC)cc3)cn2n1 | 2.13 µM
O=C(CCc1c[nH]c2ccccc12)Nc1ccc(N2CCOCC2)cc1 | 30.5 µM
COc1cccc2cc(C(=O)Nc3nc(-c4ccncc4)cs3)oc12 | 0.17 µM
CCOc1ccc(NC(=O)COc2cccc(-n3cnnn3)c2)cc1 | > 50 µM (inactive)
C=C1Nc2ccccc2C(=O)N1c1cccc(NC(=O)c2ccc(C)c(C)c2)c1 | > 50 µM (inactive)
Cc1cc(C)c(NC(=O)Cn2c(=O)n(CCC(=O)NCc3ccc4c(c3)OCO4)c(=O)c3sccc32)c(C)c1 | 3.02 µM
CSc1ccccc1C(=O)Nc1sc2c(c1C(N)=O)CCC(C)C2 (configuration not stated) | 2.35 µM
Cc1ccc2c(C)nc(Nc3ncc4c(n3)CC(c3ccco3)CC4=O)nc2c1 (configuration not stated) | < 0.05 µM
COc1ccccc1NC(=O)Cn1cc(C(=O)c2ccc(C)cc2)c(=O)c2cc(Cl)ccc21 | 16.6 µM
CCOC(=O)c1cnn(-c2ccc(C(=O)Nc3ccc(C)c(Cl)c3)cc2)c1N | 2.35 µM
O=C(CSc1nc2ccccc2n1S(=O)(=O)c1ccc(Br)cc1)Nc1ccc([N+](=O)[O-])cc1Cl | > 50 µM (inactive)
NC(=O)Cn1c(=O)n(Cc2ccc(C(=O)NC3CCCC3)cc2)c(=O)c2ccccc21 | > 50 µM (inactive)
CC(C)(C)c1ccc(C(=O)Nc2ccc(Oc3cccnc3)nc2)cc1 | > 50 µM (inactive)
C=Cc1ccc(Cn2cc(S(=O)(=O)N3CCOCC3)ccc2=O)cc1 | 40.6 µM
CC1(C(=O)NC2CCCC2)Cn2c(cc3ccccc32)C(=O)N1c1ccc(F)cc1 (configuration not stated) | 30.9 µM
Cc1nnc(-c2nnc(NCc3ccc(Cl)cc3)c3ccccc23)o1 | > 50 µM (inactive)
Cc1cc(C(F)(F)F)n2nc(C3CCN(C(=O)c4cnn(C)c4C)C3)cc2n1 (configuration not stated) | 30.2 µM
CCN(c1ccc(NC(=O)CSc2nnc(-c3ccccc3)n2-c2ccc(OC)c(OC)c2)cc1)C(C)C | 5.06 µM
Clc1cccc(N2CCN(c3ncnc4nc[nH]c34)CC2)c1 | > 50 µM (inactive)
CCOc1ccc(-c2ccc3nnc(SCC(=O)Nc4cccc(C(C)=O)c4)n3n2)cc1 | 4.26 µM
O=C(CCCn1c(=O)c2ccccc2n(CC(=O)NCc2ccccc2Cl)c1=O)NCc1ccc2c(c1)OCO2 | 2.2 µM
Cc1ccc2[nH]c(=O)c(CN(CC3COCCO3)S(=O)(=O)c3ccc(F)cc3)cc2c1 (configuration not stated) | 4.16 µM
Cc1cc(C(=O)NC2(O)C(=O)c3ccccc3C2=O)n(C)n1 | 7.39 µM
CN(C)S(=O)(=O)c1ccc(N2CCCC2)c(C(=O)Nc2ccc(-c3cn4ccsc4n3)cc2)c1 | > 50 µM (inactive)

SMILES | IC50
O=[N+]([O-])c1cccc(CSc2nnc(/C=C/c3ccccc3)o2)c1 | > 50 µM (inactive)
Cc1ccc(Nc2nc(Nc3cccc(F)c3)nc3nccnc23)c(C)c1 | > 50 µM (inactive)
COc1ccc(NC(=O)c2ccnc(Nc3ccc(OC)cc3)c2)cc1 | 42.4 µM
COc1ccccc1NC(=O)Nc1ccc(NC(=O)c2ccccc2O)cc1 | 47.5 µM
COc1ccc(C(=O)CSc2nnc(-c3cc4cccc(OC)c4o3)n2C)cc1OC | > 50 µM (inactive)
Cc1cc(CSc2ncccc2C(=O)Nc2ccnn2Cc2cccnc2)no1 | > 50 µM (inactive)
O=C(c1ccc2occc2c1)N1CCC(S(=O)(=O)c2ccc(-c3ccco3)cc2)CC1 | > 50 µM (inactive)
CCc1nc(N2CCCC2=O)sc1C(=O)Nc1cccc(C(C)=O)c1 | > 50 µM (inactive)
N#Cc1cn(CC(=O)N2CCc3ccccc32)c2ccccc12 | 47.4 µM
Cc1cccc(C(=O)OCC(=O)Nc2ccc3[nH]c(=O)[nH]c3c2)c1C | 4.32 µM
O=c1c2ccccc2oc2nc(-c3cccs3)n(-c3ccccc3)c(=O)c12 | 2.67 µM
O=C(Cc1ccccc1F)N1CCC2(CC1)CC1(CO2)Nc2ccccc2-n2cccc21 (configuration not stated) | > 50 µM (inactive)
COc1ccc(C(=O)Nc2ccc(S(=O)(=O)N3CCCCC3)cc2)cc1 | > 50 µM (inactive)
Cc1cc2nc(Oc3cccc(Cl)c3)c3ccccc3n2n1 | 1.91 µM
O=C(COc1ccccc1-c1nnc(-c2ccccc2)o1)Nc1ccc(F)cc1F | 1.87 µM
CCN(CC)c1nc(F)c2c(c1F)S(=O)(=O)CCN2Cc1ccccc1 | > 50 µM (inactive)
COc1cccc(CC(=O)Nc2cc(F)c3nc(N4CCOCC4)ccc3c2)c1 | > 50 µM (inactive)
COc1cccc(NC(=O)CCc2c(C)nn(-c3cc(N4CCCCC4)ncn3)c2C)c1 | > 50 µM (inactive)
Cc1ccc(S(=O)(=O)N2CCCCC2)cc1NC(=O)Cc1cccc(F)c1 | > 50 µM (inactive)
Cc1c(-c2nnc(-c3ccccn3)o2)nnn1-c1cccc(Cl)c1 | 35.1 µM
O=C(NCCc1ccccc1)c1nnn(Cc2cccc(Cl)c2)c1-n1cccc1 | > 50 µM (inactive)
O=C(C1CCCN(S(=O)(=O)N2CCCCCC2)C1)N1CCN(c2ccccc2)CC1 (configuration not stated) | > 50 µM (inactive)
COc1ccccc1-c1nc(Cn2nnc(C(=O)Nc3cc(C)cc(C)c3)c2N)c(C)o1 | 22.3 µM
O=C(Nc1cccc(C(F)(F)F)c1)c1cc2c(s1)-c1ccccc1OC2 | 2.15 µM
COCCCn1c(C(=O)NCCc2ccccc2)cc2c(=O)n3cccc(C)c3nc21 | 28.5 µM

SMILES | IC50
O=C(COC(=O)c1ccc(Cl)cc1)Nc1ccc2[nH]c(=O)[nH]c2c1 | 9.91 µM
Fc1cc(F)c2[nH]cc(-c3nnnn3-c3ccc4ccccc4c3)c2c1 | 6.56 µM
COc1ccc(NC(=O)c2nnn(-c3ccccc3)c2C)cc1OC | > 50 µM (inactive)
O=C(O)c1ccccc1C(=O)Nc1ccc(SC(C(=O)Nc2ccccc2)c2ccccc2)cc1 (configuration not stated) | > 50 µM (inactive)
COc1ccc(OC)c(NC(=O)CSc2nc(C)nc3c2oc2ccccc23)c1 | 2.54 µM
O=C(Nc1nnc2n1CCCS2)c1cccc(Cl)c1 | > 50 µM (inactive)
COc1cccc(CNC(=O)C2=Cc3cccc(OC)c3OC2)c1 | > 50 µM (inactive)
O=C1c2c(O)c(Cl)cc3c2[C@@]2(Oc4cc(Cl)c(O)c5c4[C@]3(O2)[C@@H]2O[C@@H]2C5=O)[C@@H]2O[C@H]12 | 0.411 µM
COCCN(C1CCN(CCc2ccc(Cl)cc2)CC1)S(=O)(=O)c1cccc2cccnc12 | > 50 µM (inactive)
COc1cc(O)c2c(c1)C1=CC(=O)C(O)=C[C@]1(C)OC2=O | 49.4 µM
CCN(CC)C(=O)CN1CCCC(c2ncncc2-c2cc(C)no2)C1 (configuration not stated) | > 50 µM (inactive)
COc1ccc(-c2cc(-c3nnc(CSc4nc5ccccc5n4C)o3)c3ccccc3n2)cc1OC | > 50 µM (inactive)
CCc1c(Cl)c(O)c(Cl)c(O)c1C(=O)O[C@H]1C(C)O[C@@H](OC/C2=C\C=C\CC(O)/C(C)=C/C(CC)C(O[C@@H]3OC(C)(C)[C@H](O)C(OC(=O)C(C)C)[C@@H]3O)/C(C)=C/C(C)=C/CC(C(C)O)OC2=O)[C@@H](OC)C1O (some centres not stated) | > 50 µM (inactive)
O=C(CN1C(=O)NC2(CCCCC2)C1=O)Nc1ccc([N+](=O)[O-])cc1 | 32.8 µM
Cc1cc(=O)c2c(O)oc(O)c3c(O)cc(=O)c1c32 | 24.4 µM
O=C(c1nnn(Cc2ccc(Cl)cc2)c1-n1cccc1)N1CCCC1 | > 50 µM (inactive)
COc1cc(Cl)ccc1C(=O)Nc1cccc(-n2cnnn2)c1C | 4.48 µM
CC(=O)c1ccccc1NC(=O)COc1ccc(-c2ccc(C#N)cc2)cc1 | 2.62 µM
Cc1ccc(C)c(CSC2=NCCN2C(=O)c2ccco2)c1 | > 50 µM (inactive)
COc1ccc(CN2CCCC23CCCN(C(=O)CCc2cccnc2)C3)cc1F (configuration not stated) | 33.6 µM
O=C(CSc1nc2ccncc2[nH]1)Nc1ccc(Br)cc1F | 37.9 µM
CCCCCn1c(Sc2ccc(C)cc2)nc2c1c(=O)[nH]c(=O)n2C | 16.3 µM
Cc1ccc(NC(=O)c2cc(=O)n(C)c3c2c(=O)n(C)c(=O)n3C)c(C)c1 | > 50 µM (inactive)
COc1ccc(NC(=O)CC(=O)c2ccc([N+](=O)[O-])cc2)cc1S(=O)(=O)Nc1ccc(Br)cc1 | 22 µM
CCc1ccc(-c2nc(SCC(=O)Nc3ccc4[nH]c(=O)[nH]c4c3)n[nH]2)cc1 | 27.4 µM

SMILES | IC50
O=C(COc1cccc2ccc(N3CCC(Cc4ccccc4)CC3)nc12)NCc1ccc(F)cc1 | 21.1 µM
Cc1cc(-n2c(C)cc(-c3csc(N)n3)c2C)no1 | > 50 µM (inactive)
COc1ccc(CNC(=O)CN2C(=O)CC(c3ccccc3)=Nc3ccccc32)cc1 | 4.42 µM
CC1CCN(c2cc(-n3cnc(C(=O)N4CCCC(C)C4)c3)ncn2)CC1 (configuration not stated) | > 50 µM (inactive)
CCOc1ccc2[nH]c(=O)c(CN(C(=O)c3cccs3)C3CCCC3)cc2c1 | 11.1 µM
CN(CCCNC(=O)c1cccc2c1SCCC2=O)c1ccccc1 | > 50 µM (inactive)
COc1ccc(-c2nc(C)c(C(=O)NCc3ccc(S(N)(=O)=O)cc3)s2)cc1 | > 50 µM (inactive)
CS(=O)(=O)c1ccc(NC(=O)C2CN(c3nc4c(F)cccc4s3)C2)cc1 | 36.2 µM
COc1ccc(-c2cc(C(=O)N3CCN(c4ccc([N+](=O)[O-])cc4)CC3)[nH]n2)cc1 | > 50 µM (inactive)
COc1ccc(NC(=O)Nc2cccc(-c3nnc(-c4ccccc4)o3)c2)cc1OC | 10.9 µM
O=C1N(Cc2ccc(F)cc2)CCN1c1ccc(C(F)(F)F)cn1 | > 50 µM (inactive)
Cc1ccc(NC(=O)c2ccc3c(c2)N(S(C)(=O)=O)CC3)cc1 | 38.3 µM
Cc1cccc(NC(=O)Cn2cnc(-c3noc(-c4ccccc4)n3)c2)c1C | 1.35 µM
Cc1cc(C)cc(NC(=O)CN2C(=O)CC(c3ccccc3)Sc3ccccc32)c1 (configuration not stated) | > 50 µM (inactive)
O=C(NC1CCN(Cc2ccccc2)CC1)c1[nH]nc2c1CCc1ccccc1-2 | > 50 µM (inactive)
COc1ccc(-n2ccn3c(CCC(=O)NCc4ccc(F)cc4)nnc3c2=O)cc1 | 33 µM
c1coc(CNc2nc(Nc3cccc4ccccc34)nc3ccccc23)c1 | > 50 µM (inactive)
COc1ccccc1-c1nc2c3c(C)c(C)n(Cc4cccnc4)c3ncn2n1 | > 50 µM (inactive)
COC(=O)c1ccc2c(=O)n(CCCCCC(=O)NCCc3ccc(S(N)(=O)=O)cc3)c(=O)[nH]c2c1 | 5.08 µM
Cc1cccc(-c2noc(CCn3c(=O)[nH]c4ccccc4c3=O)n2)c1 | 34.5 µM
O=C(NCc1ccc(CN2CCCC2)cc1)c1cc2ccccc2[nH]c1=O | 28.4 µM
O=C(Nc1cccc(N2CCCC2=O)c1)c1cccc2cccnc12 | 21.9 µM
